According to ChEMBL document CHEMBL3877336, “Structure-Based Design of ASK1 Inhibitors as Potential Agents for Heart Failure” (ACS Med Chem Lett, 2017):

Columns and labels:
[1] = target: T1, Mitogen-activated protein kinase kinase kinase 5 (Homo sapiens, UniProt Q99683); assay: Inhibition of recombinant human N-terminal GST-tagged ASK1 catalytic domain (654 to 971 residues) expressed in baculovirus infected sf21 cells using STK3 as substrate after 60 mins by HTRF assay
T1 sequence (Q99683 whole entry): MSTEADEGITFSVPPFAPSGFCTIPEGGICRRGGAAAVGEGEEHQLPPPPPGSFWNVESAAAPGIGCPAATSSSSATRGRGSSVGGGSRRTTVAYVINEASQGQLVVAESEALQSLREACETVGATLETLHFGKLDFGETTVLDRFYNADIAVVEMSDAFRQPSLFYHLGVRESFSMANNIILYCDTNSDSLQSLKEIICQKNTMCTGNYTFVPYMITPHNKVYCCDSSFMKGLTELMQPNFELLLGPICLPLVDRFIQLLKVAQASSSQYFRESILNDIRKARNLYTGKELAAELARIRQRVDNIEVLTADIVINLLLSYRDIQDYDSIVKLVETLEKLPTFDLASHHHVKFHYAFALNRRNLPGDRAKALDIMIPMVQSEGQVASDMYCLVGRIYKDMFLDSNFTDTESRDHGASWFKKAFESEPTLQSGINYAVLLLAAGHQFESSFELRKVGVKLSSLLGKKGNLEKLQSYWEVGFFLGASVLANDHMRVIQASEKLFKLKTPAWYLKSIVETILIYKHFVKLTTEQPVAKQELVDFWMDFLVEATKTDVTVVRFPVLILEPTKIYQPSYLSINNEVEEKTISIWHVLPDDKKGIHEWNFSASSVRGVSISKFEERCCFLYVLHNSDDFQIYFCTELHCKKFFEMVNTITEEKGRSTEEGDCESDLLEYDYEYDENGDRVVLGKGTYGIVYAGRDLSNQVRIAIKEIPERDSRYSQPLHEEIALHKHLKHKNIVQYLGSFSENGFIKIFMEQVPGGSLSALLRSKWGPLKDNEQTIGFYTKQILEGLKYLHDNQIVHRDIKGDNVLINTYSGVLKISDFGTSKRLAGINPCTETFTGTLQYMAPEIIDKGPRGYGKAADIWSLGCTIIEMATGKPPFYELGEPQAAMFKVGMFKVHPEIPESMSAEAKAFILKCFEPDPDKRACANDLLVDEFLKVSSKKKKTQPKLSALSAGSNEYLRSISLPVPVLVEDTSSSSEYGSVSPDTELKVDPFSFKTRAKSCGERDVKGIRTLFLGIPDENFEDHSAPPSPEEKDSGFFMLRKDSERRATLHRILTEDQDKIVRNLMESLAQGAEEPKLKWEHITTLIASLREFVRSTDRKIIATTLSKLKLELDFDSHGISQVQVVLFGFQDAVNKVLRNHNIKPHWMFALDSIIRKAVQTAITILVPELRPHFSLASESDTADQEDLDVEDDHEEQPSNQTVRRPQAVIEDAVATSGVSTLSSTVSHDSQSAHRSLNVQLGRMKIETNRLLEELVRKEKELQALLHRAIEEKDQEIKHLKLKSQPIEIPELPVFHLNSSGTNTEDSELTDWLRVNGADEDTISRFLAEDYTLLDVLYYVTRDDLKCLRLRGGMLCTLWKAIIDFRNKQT

[2] = target: T1, Mitogen-activated protein kinase kinase kinase 5; assay: Inhibition of human ASK1 expressed in HEK293 cells assessed as inhibition of H2O2-induced JNK phosphorylation preincubated for 30 mins followed by H2O2 addition measured after 30 mins by ELISA; type: cell-based
Rattus norvegicus [3] = assay: Anti-ischemic activity in Langendorff perfused Sprague-Dawley rat heart assessed as reduction in infarct size at 2.25 mg/kg, po administered via gavage administered 1 hr prior to ischemia/reperfusion relative to control; type: functional; parameters: scale not given: the % may be the effect or the level left
[4] = Solubility of the compound in pH 1 solution at 155 uM after overnight incubation by HPLC method; type: physicochemical; conditions: buffer, pH 1, 155 µM
MDR1 (human) [5] = assay: Apparent permeability from basolateral to apical side in pig LLC-PK1 cells expressing human MDR1 at 10 uM after 2 hrs by LC-MS/MS analysis; type: ADME, cell-based, Sus scrofa
Rattus norvegicus [6] = assay: Anti-ischemic activity in Langendorff perfused Sprague-Dawley rat heart assessed as reduction in infarct size at 2.25 mg/kg, po administered via gavage 8 hrs prior to ischemia/reperfusion relative to control; type: functional; parameters: scale not given: the % may be the effect or the level left
[7] = Intrinsic clearance in human liver microsomes at 1 uM up to 30 mins in presence of NADPH by UPLC-MS/MS analysis; type: ADME; conditions: read-out: CLH
[8] = Intrinsic clearance in rat liver microsomes at 1 uM up to 30 mins in presence of NADPH by UPLC-MS/MS analysis; type: ADME; conditions: read-out: CLH
MDR1 (human) [9] = assay: Apparent permeability from apical to basolateral side in pig LLC-PK1 cells expressing human MDR1 at 10 uM after 2 hrs by LC-MS/MS analysis; type: ADME, cell-based, Sus scrofa

Structure (SMILES)	IC50 [1]	EC50 [2]	further results
CC[C@@H](C)n1cnnc1-c1cccc(N2Cc3ccccc3C2=O)n1	50.1 nM	–	–
Cc1ccc(C(=O)Nc2cccc(-c3nncn3C(C)C)n2)c(F)c1	50.1 nM	–	–
CC(CF)n1cnnc1-c1cccc(N2Cc3ccccc3C2=O)n1 (stereo not drawn)	12.6 nM	–	–
CC(CC#N)n1cnnc1-c1cccc(N2Cc3ccccc3C2=O)n1 (stereo not drawn)	20 nM	–	–
C[C@@H](CO)n1cnnc1-c1cccc(N2Cc3ccccc3C2=O)n1	31.6 nM	–	–
CC(C)Oc1ccc2c(c1)C(=O)N(c1cccc(-c3nncn3C(C)C)n1)C2	15.8 nM	31.6 nM	–
CC[C@H](C)n1cnnc1-c1cccc(N2Cc3ccccc3C2=O)n1	20 nM	–	–
CC(C)n1cnnc1-c1cccc(N2Cc3ccc(OC[C@@H]4CN(C)CCO4)cc3C2=O)n1	6.31 nM	6.31 nM	–
CC(C)n1cnnc1-c1cccc(N2Cc3ccccc3C2=O)n1	12.6 nM	–	–
CC(CCO)n1cnnc1-c1cccc(N2Cc3ccccc3C2=O)n1 (stereo not drawn)	39.8 nM	–	–
CC(C)Oc1ccc2c(c1)C(=O)N(c1cccc(-c3nncn3[C@H](C)CO)n1)C2	5.01 nM	6.31 nM	Activity (Rattus norvegicus [3]): 42%; solubility [4]: Soluble; Papp B→A at 2 h, 10 µM (MDR1 (human) [5]): 26.2 ×10⁻⁶ cm/s; Activity (Rattus norvegicus [6]): 24%; CLint scaled at 1 µM [7]: < 8.3 mL/min/kg; CLint scaled at 1 µM [8]: < 16.6 mL/min/kg; Papp A→B at 2 h, 10 µM (MDR1 (human) [9]): 5.49 ×10⁻⁶ cm/s
O=C1c2ccccc2CN1c1cccc(-c2nncn2CC2CCO2)n1 (stereo not drawn)	794 nM	–	–
C[C@H](CO)n1cnnc1-c1cccc(N2Cc3ccccc3C2=O)n1	10 nM	–	–
COCCOc1ccc2c(c1)C(=O)N(c1cccc(-c3nncn3C(C)C)n1)C2	7.94 nM	15.8 nM	–
COCCOc1ccc2c(c1)C(=O)N(c1cccc(-c3nncn3[C@H](C)CO)n1)C2	7.94 nM	12.6 nM	–
Cc1cc(F)c(C(=O)Nc2ccccn2)cc1-n1cnc(C2CC2)c1	6310 nM	–	–
